Assay results published in patent EP4807001A1, “MODIFICATION TEMPLATE FOR IMPROVING INHIBITORY EFFECT OF DOUBLE-STRANDED OLIGONUCLEOTIDE ON TARGET GENE, COMBINATION THEREOF AND USE THEREOF” (Hangzhou Tianlong Pharmaceutical Co., Ltd., priority 2023, dated 2025).

Columns and labels:
[1] = test system: HBV; assay: AAV-HBV mouse model, low dose 0.5 mg/kg (Example 15); assay type: in vivo, AAV-HBV mice; details: for Log10 HBV DNA (IU/mL) / Log10 HBeAg (S/CO) / Log10 HBsAg (IU/mL) / HBsAb: plasma; for Log10 HBV DNA (IU/mL) / Log10 HBeAg (S/CO) / Log10 HBsAg (IU/mL): AAV-HBV mice, siRNA 0.5 mg/kg s.c. D0/7/14, ETV 0.1 mg/kg daily i.g.
Description: In this example, several sequences were exemplarily selected, such as the sequences C207S-DV32SPG5, C207S-DV29SPG5, C418S-DV34SPd7BG5, and C1575-DV27PG5 from Example 14, as shown in Table 49. The in vivo efficacy of these RNAi agents at a low dose (e.g., 0.5 mg/kg) was analyzed using an AAV-HBV mouse model.
Refer to Example 7. Table 51-10: Details of grouping and dosing

[2] = Plasma ALT levels in AAV-HBV mice (Examples 14-16); assay type: in vivo
Description: At week 4 (D-14) and week 5 (D-7) post-modeling, on the day prior to dosing (D0), and weekly post-dosing, 200 µL of blood was collected from the inner canthus and added to an EDTA-K2 tube, followed by centrifugation at 1000 g for 10 minutes to obtain plasma. The 12 mice in the two groups were subjected to challenge on D60. 200 µL of blood was collected from the inner canthus on D63, D67, D74, and D81, respectively, and added to an EDTA-K2 tube, followed by centrifugation at 1000 g for 10 minutes to obtain plasma. 20 µL of plasma was added to 980 µL of PBS, vortexed thoroughly, and analyzed for HBsAg, HBV DNA, HBeAg, and ALT levels. Separately, 15 µL of plasma was added to 210 µL of PBS, vortexed thoroughly, and analyzed for HBsAb levels. All processed samples to be tested were analyzed by Guangzhou Huayin Medical Research Institute. The remaining plasma was stored at - 80°C.
Blood was collected from all animals via submandibular venipuncture on Days -2, 6, 13, 20, 27, and 34. The collected blood samples were anticoagulated with EDTA and centrifuged at 5000 rpm for 10 minutes to obtain serum. After blood collection, the serum was separated, diluted with PBS, and sent for analysis. A 10 µL aliquot of serum was taken from each sample, diluted to 500 µL with PBS (50-fold dilution), and sent to Beijing DIAN Medical Laboratory Co., Ltd. for analysis of serum HBV DNA, HBeAg, and HBsAg. A 30 µL aliquot of serum was taken from each sample, diluted to 120 µL with PBS (4-fold dilution), and sent to Beijing DIAN Medical Laboratory Co., Ltd. for analysis of serum ALT. The remaining plasma was stored at -80°C.

[3] = test system: AGT mRNA; assay: Inhibition of AGT mRNA expression in primary human hepatocytes via free uptake, qRT-PCR (Example 24); assay type: cell-based; details: 0.0064 nM to 100 nM, read-out: IC50 against AGT
Description: The inhibitory effects of the test samples on AGT mRNA expression in primary human hepatocytes were evaluated by qRT-PCR.
The culture medium was pre-warmed at a constant temperature of 37°C for at least 30 minutes. 300 µL of PBS was added to each well of a collagen-coated 24-well plate, which was shaken several times, and the PBS was aspirated. A cryovial containing hepatocytes was removed from liquid nitrogen, placed in a 37°C water bath, and gently shaken until only a small amount of ice crystals remained in the vial. The cell suspension was poured into thawing medium in one step. 1 mL of thawing medium was pipetted to rinse the inner wall of the cryovial 2 to 3 times. The cell suspension in thawing medium was mixed by inversion. The vial was centrifuged at 50 g for 5 minutes at room temperature, with acceleration set to 5 and deceleration set to 3. The cell suspension was diluted to 3 × 10^5 cells/mL in seeding medium, seeded into a 24-well plate at 0.5 mL per well, followed by incubation in an incubator for 24 hours.
The test samples were diluted to 100 to 0.0064 nM in primary human hepatocyte maintenance medium. […]
The RNA expression levels of the target gene in each sample were calculated based on Ct values using the ΔΔCt relative quantification method. Relative expression of the target gene was expressed as 2^-ΔΔCt. […]

C=C1[C@H](CO)[C@@H](O)C[C@@H]1n1cnc2c(=O)[nH]c(N)nc21 [entecavir]
Number of mice producing HBsAb ([1]; D7, low dose 0.5 mg/kg): 0
Number of mice producing HBsAb ([1]; D14, low dose 0.5 mg/kg): 0
Number of mice producing HBsAb ([1]; D21, low dose 0.5 mg/kg): 0
Number of mice producing HBsAb ([1]; D28, low dose 0.5 mg/kg): 0
Number of mice producing HBsAb ([1]; D35, low dose 0.5 mg/kg): 0
Number of mice producing HBsAb ([1]; D42, low dose 0.5 mg/kg): 0
Number of mice producing HBsAb ([1]; D49, low dose 0.5 mg/kg): 0
Number of mice producing HBsAb ([1]; D56, low dose 0.5 mg/kg): 0
Log10 HBV DNA (IU/mL) ([1]; D0): 6.91 ± 0.58 IU/mL
Log10 HBeAg (S/CO) ([1]; D0): 3.73 ± 0.06 S/CO
Log10 HBsAg (IU/mL) ([1]; D0): 3.47 ± 0.34 IU/mL
Log10 HBV DNA (IU/mL) ([1]; D7): 4.49 ± 0.54 IU/mL
Log10 HBeAg (S/CO) ([1]; D7): 3.72 ± 0.05 S/CO
Log10 HBsAg (IU/mL) ([1]; D7): 3.50 ± 0.33 IU/mL
Log10 HBV DNA (IU/mL) ([1]; D14): 3.85 ± 0.24 IU/mL
Log10 HBeAg (S/CO) ([1]; D14): 3.72 ± 0.03 S/CO
Log10 HBsAg (IU/mL) ([1]; D14): 3.54 ± 0.25 IU/mL
Log10 HBV DNA (IU/mL) ([1]; D21): 3.89 ± 0.31 IU/mL
Log10 HBeAg (S/CO) ([1]; D21): 3.66 ± 0.05 S/CO
Log10 HBsAg (IU/mL) ([1]; D21): 3.74 ± 0.14 IU/mL
Log10 HBV DNA (IU/mL) ([1]; D28): 3.77 ± 0.37 IU/mL
Log10 HBeAg (S/CO) ([1]; D28): 3.71 ± 0.06 S/CO
Log10 HBsAg (IU/mL) ([1]; D28): 3.94 ± 0.27 IU/mL
Log10 HBV DNA (IU/mL) ([1]; D35): 3.74 ± 0.25 IU/mL
Log10 HBeAg (S/CO) ([1]; D35): 3.66 ± 0.05 S/CO
Log10 HBsAg (IU/mL) ([1]; D35): 3.96 ± 0.39 IU/mL
Log10 HBV DNA (IU/mL) ([1]; D42): 3.63 ± 0.08 IU/mL
Log10 HBeAg (S/CO) ([1]; D42): 3.68 ± 0.05 S/CO
Log10 HBsAg (IU/mL) ([1]; D42): 4.04 ± 0.40 IU/mL
Log10 HBV DNA (IU/mL) ([1]; D49): 3.97 ± 0.13 IU/mL
Log10 HBeAg (S/CO) ([1]; D49): 3.69 ± 0.08 S/CO
Log10 HBsAg (IU/mL) ([1]; D49): 4.22 ± 0.33 IU/mL
Log10 HBV DNA (IU/mL) ([1]; D56): 4.04 ± 0.32 IU/mL
Log10 HBeAg (S/CO) ([1]; D56): 3.70 ± 0.04 S/CO
Log10 HBsAg (IU/mL) ([1]; D56): 4.20 ± 0.30 IU/mL
Log10 HBV DNA (IU/mL) ([1]; D-7 (before dosing)): 6.65 ± 0.58 IU/mL
Log10 HBeAg (S/CO) ([1]; D-7 (before dosing)): 3.77 ± 0.06 S/CO
Log10 HBsAg (IU/mL) ([1]; D-7 (before dosing)): 3.36 ± 0.26 IU/mL
HBsAb ([1]; D7, low dose 0.5 mg/kg): 30 mIU/mL
HBsAb ([1]; D14, low dose 0.5 mg/kg): 30 mIU/mL
HBsAb ([1]; D21, low dose 0.5 mg/kg): 30 mIU/mL
HBsAb ([1]; D28, low dose 0.5 mg/kg): 30 mIU/mL
HBsAb ([1]; D35, low dose 0.5 mg/kg): 30 mIU/mL
HBsAb ([1]; D42, low dose 0.5 mg/kg): 30 mIU/mL
HBsAb ([1]; D49, low dose 0.5 mg/kg): 30 mIU/mL
HBsAb ([1]; D56, low dose 0.5 mg/kg): 30 mIU/mL
ALT ([2]; D7, Example 15 (low dose 0.5 mg/kg)): 75 U/L
ALT ([2]; D14, Example 15 (low dose 0.5 mg/kg)): 75 U/L
ALT ([2]; D21, Example 15 (low dose 0.5 mg/kg)): 75 U/L
ALT ([2]; D28, Example 15 (low dose 0.5 mg/kg)): 75 U/L
ALT ([2]; D35, Example 15 (low dose 0.5 mg/kg)): 75 U/L
ALT ([2]; D42, Example 15 (low dose 0.5 mg/kg)): 75 U/L

Zilebesiran
IC50 [3]: 7.07 nM
